Several values for one entry are separate records, joined by “and”; a condition that tells them apart may be missing. Identical values can stand only once.
Columns and labels:
[1] = tested on: model rats of middle cerebral artery thrombosis (MCAT); assay: Effects on cerebral infarct area of MCAT rats (TTC staining); format: in vivo, SD rats
in vivo = details: mouse, po
[2] = tested on: model rats of middle cerebral artery thrombosis (MCAT); assay: Effects on neural symptoms of MCAT rats (behavioral score); format: in vivo, SD rats; details: for Scores 6 hours: 6 hours after operation; for Scores 6 hours / Scores 24 hours: full mark 4; for Scores 24 hours: 24 hours after operation
ICR mice = details: mouse, in vivo, po, 168 h
[3] = Thermal stability (purity by HPLC); details: 10 days at 60°C
Description: Tests were conducted for 10 days at 60°C in accordance with the testing method as described in Pharmacopoeia of P.R. China, 2000 ed., appendix XIX C of part two, "Guideline for testing the stability of medicament: method for testing thermal stability". The purity was determined in accordance with the test described in Pharmacopoeia of P.R. China, 2000 ed., appendix VD of part two, by using HPLC method, C18 column, mobile phase of acetonitrile:0.02M sodium dihydrogen phosphate = 40:60, detecting wavelength of 230 nm, flow rate of 1 ml/min.

[4] = Stability to light (purity by HPLC); details: light test, 10 days
Description: Tests were conducted for 10 days in accordance with the testing method as described in Pharmacopoeia of P.R. China, 2000 ed., appendix XIX C of part two, "Guideline for testing the stability of medicament: method for testing stability to light". The purity was determined in accordance with the test described in Pharmacopoeia of P.R. China, 2000 ed., appendix VD of part two, by using HPLC method, C18 column, mobile phase of acetonitrile:0.02M sodium dihydrogen phosphate = 40:60, detecting wavelength of 230 nm, flow rate of 1 ml/min.

[5] = tested on: thrombosis of artery-vein bypass in rats; assay: Effects on thrombosis of artery-vein bypass in rats; format: in vivo, SD rats; details: for Dry-weight of thrombus / Wet-weight of thrombus: once per day for 3 days; for Inhibition (dry-weight of thrombus) / Inhibition (wet-weight of thrombus): vs. thrombus model group
[6] = 50 mg/kg by gavage, 24 hours after operation
[7] = 50 mg/kg by gavage, vs. model group
[8] = 100 mg/kg by gavage, 24 hours after operation
[9] = 100 mg/kg by gavage, vs. model group
[10] = 200 mg/kg by gavage, 24 hours after operation
[11] = 200 mg/kg by gavage, vs. model group

Row | Structure (SMILES) | Cerebral infarct tissue weight/total brain weight [1, 6] [%] | Inhibition (cerebral infarct) [1, 7] [%] | Cerebral infarct tissue weight/total brain weight [1, 8] [%] | Inhibition (cerebral infarct) [1, 9] [%] | Cerebral infarct tissue weight/total brain weight [1, 10] [%] | Inhibition (cerebral infarct) [1, 11] [%] | LD50 at 168 h (in vivo) [mg/kg] | Scores 6 hours ([2]; 50 mg/kg by gavage) | Scores 24 hours ([2]; 50 mg/kg by gavage) | % inhibition at hour 24 [2, 7] [%] | Scores 6 hours ([2]; 100 mg/kg by gavage) | Scores 24 hours ([2]; 100 mg/kg by gavage) | % inhibition at hour 24 [2, 9] [%] | Scores 6 hours ([2]; 200 mg/kg by gavage) | Scores 24 hours ([2]; 200 mg/kg by gavage) | % inhibition at hour 24 [2, 11] [%] | Dry-weight of thrombus ([5]; 50 mg/kg by gavage) [mg] | Wet-weight of thrombus ([5]; 50 mg/kg by gavage) [mg] | Inhibition (dry-weight of thrombus) ([5]; 50 mg/kg) [%] | Inhibition (wet-weight of thrombus) ([5]; 50 mg/kg) [%] | other results
1 | CCCCC1OC(=O)c2ccccc21 (racemic) [DL-3-n-butylphthalide] | 5.66±2.81 | 23.62 | 5.81±1.49 | 26.83 | 5.52±1.78 | 27.46 | 2190 | 3.36±0.81 | 3.09±0.54 | 15.11 | 3.36±0.50 | 3.09±0.70 | 17.16 | 3.36±0.67 | 3.00±0.89 | 19.57 |  |  |  |  | alleviation on neural symptoms at 24 hours after the operation (in words) ([2]; 50 mg/kg, vs. model group, P<0.01 or P<0.05): significantly alleviation
2 | CCCCC(=O)c1ccccc1C(=O)O.CCCCC(=O)c1ccccc1C(=O)O.c1ccc(CNCCNCc2ccccc2)cc1 [2-(α-n-pentanonyl)benzoate of N,N'-dibenzylethylene diamine] | 5.14±2.17 | 30.63 | 4.68±1.69 | 41.06 | 4.60±1.26 | 39.55 |  | 3.45±0.69 | 2.91±0.70 |  | 3.45±0.52 | 2.36±0.67 |  | 3.27±0.79 | 2.55±0.52 |  | 39.0 ± 10.8 | 207.1 ± 45.3 | 23.98 | 20.10 | LD50 value (ICR mice): 3078.8 mg/kg; decomposed product (thermal stability) [3]: no decomposed product; cerebral infarct compared with the model group (in words) ([1]; 50 mg/kg, P<0.05): significantly reduced; decomposed product (stability to light) [4]: no decomposed product; Dry-weight of thrombus ([5]; 100 mg/kg by gavage): 29.9 ± 13.6 mg; Wet-weight of thrombus ([5]; 100 mg/kg by gavage): 157.9 ± 67.9 mg; Inhibition (dry-weight of thrombus) ([5]; 100 mg/kg): 41.72%; Inhibition (wet-weight of thrombus) ([5]; 100 mg/kg): 39.08%; Dry-weight of thrombus ([5]; 200 mg/kg by gavage): 32.3 ± 12.5 mg; Wet-weight of thrombus ([5]; 200 mg/kg by gavage): 191.7 ± 34.8 mg; Inhibition (dry-weight of thrombus) ([5]; 200 mg/kg): 37.04%; Inhibition (wet-weight of thrombus) ([5]; 200 mg/kg): 26.04%
3 | CCC/C=C1/OC(=O)c2ccccc21 [3-n-butenylphthalide] |  |  |  |  |  |  | 2570 | 3.50±0.53 | 3.40±0.52 | 6.59 | 3.36±0.81 | 2.91±0.70 | 21.98 | 3.36±0.67 | 3.00±0.63 | 19.57 | 28.6 ± 9.6 | 169.9 ± 28.8 | 24.74 | 19.59 | Cerebral infarct tissue weight/total brain weight ([1]; rat, in vivo): 5.90±1.50% and 5.49±2.14 %; Inhibition (cerebral infarct) ([1]; rat, in vivo): 20.38% and 28.84% and 27.86%; Dry-weight of thrombus ([5]; 100 mg/kg by gavage): 22.9 ± 11.9 mg; Wet-weight of thrombus ([5]; 100 mg/kg by gavage): 137.5 ± 47.4 mg; Inhibition (dry-weight of thrombus) ([5]; 100 mg/kg): 39.74%; Inhibition (wet-weight of thrombus) ([5]; 100 mg/kg): 34.93%; Dry-weight of thrombus ([5]; 200 mg/kg by gavage): 24.9 ± 12.3 mg; Wet-weight of thrombus ([5]; 200 mg/kg by gavage): 141.6 ± 41.2 mg; Inhibition (dry-weight of thrombus) ([5]; 200 mg/kg): 34.47%; Inhibition (wet-weight of thrombus) ([5]; 200 mg/kg): 32.99%
4 | CCCCC(O)c1ccccc1C(=O)O (stereo not drawn) [Calcium 2-(α-hydroxypentyl)benzoate] | 6.39±2.33 | 13.77 | 5.82±1.90 | 26.70 | 5.41±1.77 | 28.91 |  | 3.45±0.52 | 3.36±0.50 | 7.69 | 3.55±0.52 | 3.09±0.70 | 17.16 | 3.45±0.52 | 2.91±0.54 | 21.98 |  |  |  |  | 

Reference: patent EP1734031A1, “NOVEL 2-(ALPHA-N-PENTANONYL)BENZOETES, THEIR PREPARATION AND USE” (priority 2004, dated 2005)
